Values joined by “and” are separate entries in the source; they are usually repeats but may differ in a detail not shown here. Identical values can stand only once. “Also recorded” adds a separate entry of the source. Like-named read-outs stand apart in the source and are kept apart here.
How the values were obtained:
[1] = biological target: human mGlu3 receptors (Homo sapiens, UniProt Q14832); details: in vitro; e.g., below about 10 nM, or below about 5 nM; cited from earlier work
[2] = biological target: human mGlu2 receptors (Homo sapiens, UniProt Q14416); details: in vitro; e.g., below about 10 nM, or below about 5 nM; cited from earlier work
Sequence of human mGlu2 receptors (Q14416 19-872): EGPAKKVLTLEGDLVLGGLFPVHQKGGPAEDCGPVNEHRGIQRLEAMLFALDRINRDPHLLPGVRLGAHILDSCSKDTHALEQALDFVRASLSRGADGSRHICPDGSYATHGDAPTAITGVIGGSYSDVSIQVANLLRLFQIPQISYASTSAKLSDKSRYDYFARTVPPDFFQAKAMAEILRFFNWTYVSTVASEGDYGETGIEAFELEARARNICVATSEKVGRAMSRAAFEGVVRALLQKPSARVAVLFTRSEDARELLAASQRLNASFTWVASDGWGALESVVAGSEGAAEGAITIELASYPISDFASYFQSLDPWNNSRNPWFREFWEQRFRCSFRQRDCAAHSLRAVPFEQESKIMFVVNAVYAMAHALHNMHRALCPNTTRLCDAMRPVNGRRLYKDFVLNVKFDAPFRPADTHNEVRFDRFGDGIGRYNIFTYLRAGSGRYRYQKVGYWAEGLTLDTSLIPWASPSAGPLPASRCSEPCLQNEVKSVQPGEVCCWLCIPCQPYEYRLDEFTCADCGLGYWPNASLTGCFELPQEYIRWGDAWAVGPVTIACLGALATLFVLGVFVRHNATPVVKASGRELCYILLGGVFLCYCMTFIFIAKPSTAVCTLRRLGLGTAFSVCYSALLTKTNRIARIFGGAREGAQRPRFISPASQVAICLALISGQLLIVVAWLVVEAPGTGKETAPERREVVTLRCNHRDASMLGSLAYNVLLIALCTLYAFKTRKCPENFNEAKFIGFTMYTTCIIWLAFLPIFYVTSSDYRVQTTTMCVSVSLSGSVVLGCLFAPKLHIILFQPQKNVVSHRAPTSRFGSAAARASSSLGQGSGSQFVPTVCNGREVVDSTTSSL

[3] = system: human neural stem cells (hNSCs); test: neuronal differentiation of cultured human neural stem cells (TUJ-1 staining), agents alone and in combination; details: for EC50: % of neuronal positive control, basal media subtracted; for effect on differentiation of hNSCs along a neuronal lineage, agent alone: dose-response, normalized to neuronal positive control;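 for all read-outs here: cells kept in mitogen-free test media, with growth-factor-free basal medium as the negative control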
Description: The presence of synergy was determined by use of a combination index (CI). […] The CI is a quantitative measure of the nature of drug interactions, comparing the EC50's of two compounds, when each is assayed alone, to the EC50 of each compound when assayed in combination. The combination index (CI) is equal to the following formula:
where C1 and C2 are the concentrations of a first and a second compound, respectively, resulting in 50% activity in neuronal differentiation when assayed in combination; and IC1 and IC2 are the concentrations of each compound resulting in 50% activity when assayed independently.

[4] = system: Male Fischer F344 rats; test: novelty suppressed feeding antidepressant/anxiolytic assay; type: in vivo, rat; details: oral gavage once daily for 21 days, compounds given two hours prior to testing, 5.0 mg/kg each
Description: Male Fischer F344 rats were administered test compound(s)+vehicle or vehicle only (negative control) by oral gavage once daily for 21 days and evaluated for antidepressant/anxiolytic activity in the novelty suppressed feeding assay as follows. Twenty-four hours prior to behavioral testing, all food was removed from the home cage. At the time of testing a single pellet was placed in the center of a novel arena. Animals were placed in the corner of the arena and latency to eat the pellet was recorded. Compounds were administered two hours prior to testing. A decreased latency to eat the food pellet is indicative of both neurogenesis and antidepressant activity.

[5] = biological target: mGluR3 (Homo sapiens, UniProt Q14832); details: cited from earlier work
Sequence of mGluR3 (Q14832 23-879): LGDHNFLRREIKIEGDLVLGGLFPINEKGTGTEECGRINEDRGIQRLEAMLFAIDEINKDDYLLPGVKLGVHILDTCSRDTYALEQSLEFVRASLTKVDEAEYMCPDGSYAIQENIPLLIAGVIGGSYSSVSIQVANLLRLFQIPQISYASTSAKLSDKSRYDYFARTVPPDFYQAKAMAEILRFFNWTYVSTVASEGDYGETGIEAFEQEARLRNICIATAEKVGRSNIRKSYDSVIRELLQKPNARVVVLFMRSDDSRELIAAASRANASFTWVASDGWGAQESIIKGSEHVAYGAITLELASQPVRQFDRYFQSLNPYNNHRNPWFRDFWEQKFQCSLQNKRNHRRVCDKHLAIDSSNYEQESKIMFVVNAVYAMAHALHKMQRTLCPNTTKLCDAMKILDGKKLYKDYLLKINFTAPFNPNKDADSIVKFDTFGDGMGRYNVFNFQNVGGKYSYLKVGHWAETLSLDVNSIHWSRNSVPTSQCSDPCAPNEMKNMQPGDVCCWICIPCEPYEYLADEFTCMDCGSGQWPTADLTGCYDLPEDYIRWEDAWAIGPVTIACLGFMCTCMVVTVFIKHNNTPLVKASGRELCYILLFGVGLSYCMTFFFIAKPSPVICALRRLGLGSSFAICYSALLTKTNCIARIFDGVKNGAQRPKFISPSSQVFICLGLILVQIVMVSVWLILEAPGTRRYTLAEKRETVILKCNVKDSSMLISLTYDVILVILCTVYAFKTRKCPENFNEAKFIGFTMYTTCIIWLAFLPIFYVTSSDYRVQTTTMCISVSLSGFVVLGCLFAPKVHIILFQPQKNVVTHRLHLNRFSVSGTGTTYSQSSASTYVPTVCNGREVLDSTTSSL

[6] = biological target: mGluR2 (Homo sapiens, UniProt Q14416); details: cited from earlier work
Sequence of mGluR2 (Q14416 19-872): as the sequence (Q14416 19-872) above

[7] = in vivo; cited from earlier work
[8] = cited from earlier work
[9] = system: human neural stem cells (hNSCs); test: toxicity on human neural stem cells (cell count, nuclear dye Hoechst 33342); type: cell-based; details: concentrations up to 100 μM; toxic doses fall below 80% of basal cell count
Description: Data is shown as a percent of the basal media cell count. Toxic doses typically fall below 80% of the basal cell count.
Experiments were carried out as described in Example 1, except that the positive control contained basal media only, and cells were stained with nuclear dye (Hoechst 33342).

[10] = system: human neural stem cells (hNSCs); test: astrocyte differentiation of cultured human neural stem cells (GFAP staining); type: cell-based; details: dose-response, normalized to astrocyte positive control
Description: Mitogen-free test media with a positive control for neuronal differentiation, mitogen-free test media with 50 ng/ml BMP-2, 50 ng/ml LIF and 0.5% FBS served as a positive control for astrocyte differentiation, and basal media without growth factors served as a negative control.

[11] = system: human neural stem cells (hNSCs); test: growth of individual neurospheres comprising hNSCs (proliferation); type: cell-based; details: 1 μM, 10 μM and 30 μM; percent increase over basal neurosphere size as a function of time
Description: Results are shown as a percent increase over the basal neurosphere size. Negative control (open circles) is basal media without compound, and positive control (open squares) is basal media with a known proliferative agent.
FIG. 7 is a time-response curve showing the effect of 1 μM (solid diamonds), 10 μM (solid squares), and 30 μM (solid circles) concentrations of baclofen on the growth of individual neurospheres comprising human neural stem cells (hNSCs) as a function of time. Results are shown as a percent increase over the basal neurosphere size. Negative control (open circle) is basal media without compound, and positive control (open square) is basal media with a known proliferative agent.

[12] = system: Male Fisher F344 rats; test: chronic dosing of rats: proliferation and differentiation of neural cells in the dentate gyrus (BrdU); type: in vivo, rat; details: for increase in differentiation of neural progenitor cells into mature neurons, subgranular zone of dentate gyrus: chronic treatment
Description: Male Fisher F344 rats were injected with varying doses of baclofen as a test compound with vehicle, or vehicle only (negative control), once daily for twenty eight days. Rats were injected once daily with 100 mg/kg BrdU on days 9-14 of test compound administrations. Rats were then anesthetized and killed by transcardial perfusion of 4% paraformaldehyde at day 28. Brains were rapidly removed and stored in 4% paraformaldehyde for 24 hours and then equilibrated in phosphate buffered 30% sucrose. Free floating 40 micron sections were collected on a freezing microtome and stored in cryoprotectant. Antibodies against BrdU and cell types of interest (e.g., neurons, astrocytes, oligodendrocytes, endothelial cells) were used for detection of cell differentiation.
Briefly, tissues were washed (0.01 M PBS), endogenous peroxidase blocked with 1% hydrogen peroxide, and incubated in PBS (0.01 M, pH 7.4, 10% normal goat serum, 0.5% Triton X-100) for 2 hours at room temperature. Tissues were then incubated with primary antibody at 4° C. overnight. The tissues were rinsed in PBS followed by incubation with biotinylated secondary antibody (1 hour at room temperature). Tissues were further washed with PBS and incubated in avidin-biotin complex kit solution at room temperature for 1 hour. Various fluorophores linked to streptavidin were used for visualization. Tissues were washed with PBS, briefly rinsed in dH2O, serially dehydrated and coverslipped. Cell counting and unbiased stereology was limited to the hippocampal granule cell layer proper and one 50 um border along the hilar margin that includes the neurogenic subgranular zone. The proportion of BrdU cells displaying a lineage-specific phenotype was determined by scoring the co-localization of cell phenotype markers with BrdU using confocal microscopy. Split panel and z-axis analysis were used for all counting. All counts were performed using multi-channel configuration with a 40× objective and electronic zoom of 2. When possible, 100 or more BrdU-positive cells were scored for each marker per animal. Each cell was manually examined in first full “z”-dimension and only those cells for which the nucleus is unambiguously associated with the lineage-specific marker were scored as positive.
The total number of BrdU-labeled cells per hippocampal granule cell layer and subgranule zone were determined using diaminobenzidine stained tissues. Over-estimation was corrected using the Abercrombie method for nuclei with empirically determined average diameter of 13 um within a 40 um section.

[13] = Homo sapiens, Neural stem cell, read-out: EC50 for neuronal differentiation, agent alone, compound run individually
[14] = read-out: EC50 for neuronal differentiation, agent alone, compound run individually

Sequence of human mGlu3 receptors (Q14832 23-879): as the sequence (Q14832 23-879) above

For N[C@@]1(C(=O)O)CO[C@H]2[C@H](C(=O)O)[C@H]21 [LY379268, (−)-2-Oxa-4-aminobicyclohexane-4,6-dicarboxylic acid], the EC50 [1] is given as “low nanomolar range” and the EC50 [2] is given as “low nanomolar range”.
CCCc1nc2c(C)cc(-c3nc4ccccc4n3C)cc2n1Cc1ccc(-c2ccccc2C(=O)O)cc1 [telmisartan] showed an EC50 [3, 13] of 0.02 µM.
With CC(C)C[C@H](CN)CC(=O)O [pregabalin, (S)-(+)-3-isobutylgaba] the EC50 [3, 14] was 0.57 µM and 3.39 µM and 4.13 µM and the “antidepressant and anxiolytic effects in novelty suppressed feeding” value [4] was “no effects”.
Compound NC(=O)c1ncn([C@@H]2O[C@H](CO)[C@@H](O)[C@H]2O)n1 [ribaviran, ribavirin] has an EC50 [3, 13] of 6.1 µM.
CCCCc1ncc(/C=C(\Cc2cccs2)C(=O)O)n1Cc1ccc(C(=O)O)cc1 [eprosartan] gave an EC50 [3, 13] of 0.03 µM.
Work on COC(=O)[C@@H]1[C@H]2C[C@H]3c4[nH]c5ccccc5c4CCN3C[C@@H]2CC[C@@H]1O [yohimbine] yielded an EC50 [3, 13] of 1.96 µM.
In the case of NC(=O)C[S+]([O-])C(c1ccccc1)c1ccccc1 (stereo not drawn) [modafinil], the EC50 [3, 13] is reported as 3.44 µM.
With CCOc1nc2cccc(C(=O)O)c2n1Cc1ccc(-c2ccccc2-c2nnn[nH]2)cc1 [candesartan] the EC50 [3, 13] was 1.17 µM, the EC50 [3, 14] was 1.33 µM and the “antidepressant and anxiolytic effects in novelty suppressed feeding” value [4] was “no effects”.
In the case of NC1(C(=O)O)CCc2cc(P(=O)(O)O)ccc21 (racemic) [APICA, (RS)-1-amino-5-phosphonoindan-1-carboxylic acid], the IC50 [5] is given as roughly 30 µM and the IC50 [6] is given as roughly 30 µM.
Compound O=C1CC[C@@]2(O)[C@H]3Cc4ccc(O)c5c4[C@@]2(CCN3CC2CC2)[C@H]1O5 [naltrexone] has an EC50 [3, 13] of 7.3 µM.
CC(C)c1c(C(=O)Nc2ccccc2)c(-c2ccccc2)c(-c2ccc(F)cc2)n1CC[C@@H](O)C[C@@H](O)CC(=O)O [atorvastatin] gave an EC50 [3, 13] of 0.003 µM.
O=C(O)[C@@H]1C[C@@H](C2CCCCC2)CN1C(=O)CP(=O)(O)CCCCc1ccccc1 [fosinoprilat] showed an EC50 [3, 13] of 3.3 µM.
In the case of NCCCC[C@H](N[C@@H](CCc1ccccc1)C(=O)O)C(=O)N1CCC[C@H]1C(=O)O [lisinopril], the EC50 [3, 13] is reported as 3.8 µM.
With CCOC(=O)[C@H](CCc1ccccc1)N[C@H]1CCc2ccccc2N(CC(=O)O)C1=O [benazepril] the EC50 [3, 13] was 5.5 µM.
For CCC[C@H](N[C@@H](C)C(=O)N1[C@H](C(=O)O)C[C@@H]2CCCC[C@@H]21)C(=O)O [perindoprilat, Perindoprilat], the EC50 [3, 13] was 3.5 µM.
CCCCN(CC)c1nc(C)nc2c1c(C)c(C)n2-c1c(C)cc(C)cc1C [antalarmin] gave an EC50 [3, 13] of 2.33 µM.
For COCCCOc1cc(C[C@@H](C[C@H](N)[C@@H](O)C[C@H](C(=O)NCC(C)(C)C(N)=O)C(C)C)C(C)C)ccc1OC [aliskiren, (2S,4S,5S,7S)-5-amino-N-(2-carbamoyl-2-methyl-propyl)-4-hydroxy-7-{[4-methoxy-3-(3-methoxypropoxy)phenyl]methyl}-8-methyl-2-propan-2-yl-nonanamide], the plasma half-life [7] is listed as “≈ 24 hours”, the EC50 [3, 13] is listed as 2.79 µM and the water solubility [8] is listed as “good water solubility”.
Work on CCCCc1nc(Cl)c(CO)n1Cc1ccc(-c2ccccc2-c2nn[nH]n2)cc1 [losartan] yielded an EC50 [3, 13] of 0.31 µM.
In the case of NCCCC(=O)O [GABA], the “toxicity on hNSCs (cell count as percent of basal media cell count)” value [9] is reported as “Neither GABA nor baclofen exhibited toxicity; also recorded: did not exhibit significant toxicity”, the “effect on differentiation of hNSCs along a neuronal lineage, agent alone” value (“effect on differentiation … agent alone” below) [3] is reported as “promoted neuronal differentiation; also recorded: significant enhancement” and the “effect on differentiation of hNSCs along an astrocyte lineage” value [10] is reported as “no detectable effect; also recorded: did not exhibit a significant effect on astrocyte differentiation”. The “effect on neurosphere growth / cell proliferation” value [11] was “positive effect on cell proliferation”.
With NCC1(CC(=O)O)CCCCC1 [gabapentin, Gabapentin] the EC50 [3, 14] was 0.68 µM and 4.32 µM and 2.66 µM.
In the case of Clc1ccc2c(c1)N=C(N1CCNCC1)c1ccccc1N2 [N-desmethylclozapine], the EC50 [3, 14] is reported as greater than 100 µM.
Work on C[C@H](CS)C(=O)N1CCC[C@H]1C(=O)O [captopril] yielded an EC50 [3, 13] of 3.8 µM.
With NCC(CC(=O)O)c1ccc(Cl)cc1 (stereo not drawn) [baclofen, Baclofen] the “toxicity on hNSCs (cell count as percent of basal media cell count)” value [9] was “Neither GABA nor baclofen exhibited toxicity; also recorded: did not exhibit significant toxicity”, the “increase in differentiation of neural progenitor cells into mature neurons, subgranular zone of dentate gyrus” value ([12]; 0.75 mg/kg/day) was 8% and the “increase in differentiation of neural progenitor cells into mature neurons, subgranular zone of dentate gyrus” value ([12]; 1.50 mg/kg/day) was 5%. For the same compound, the “neural cell proliferation within the dentate gyrus (mean number of BrdU-positive cells)” value ([12]; injection once daily for twenty eight days, 0.75 and 1.50 mg/kg) was “dose-related increase in proliferation”, the “neurogenic effects in vivo” value ([12]; once daily for twenty eight days) was “produces neurogenic effects with a rapid onset of action” and the EC50 [3, 13] was 3.84 µM. For the same compound, the “effect on differentiation … agent alone” value [3] was “significant enhancement”, the “effect on differentiation … agent alone” value ([3]; listed as Baclofen) was “promoted neuronal differentiation” and the EC50 [3, 14] was 3.2 µM. The “effect on differentiation of hNSCs along an astrocyte lineage” value [10] was “did not exhibit a significant effect on astrocyte differentiation”, the “effect on differentiation of hNSCs along an astrocyte lineage” value ([10]; listed as Baclofen) was “no detectable effect” and the “effect on neurosphere growth / cell proliferation” value [11] was “positive effect on cell proliferation”.
With C[C@H](N[C@@H](CCc1ccccc1)C(=O)O)C(=O)N1Cc2ccccc2C[C@H]1C(=O)O [quinaprilat, Quinaprilat] the EC50 [3, 13] was 2.4 µM.

From patent publication US20110046090A1 (BrainCells Inc., priority 2005, published 2011)
